Experimental data taken from US6355799B1, “Substituted benzene compounds, process for their preparation, and herbicidal and defoliant compositions containing them” (ISK Americas Incorporated, priority 1997, dated 2002).

Experiments:
Type in all cases: in vivo
[1] = system: redroot pigweed (Amaranthus retroflexus, AMARE); experiment: Pre-emerge test, greenhouse herbicide activity screening; settings: pre-emerge, 14 days after application, rating scale 0-100
Method in brief: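 Plants grown in 10 cm pots of sandy loam mix received acetone-dissolved compounds through a moving flat-fan nozzle. Doses ranged from 15 to 1000 g ai/ha. Pre-emerge pots were seeded one day earlier, post-emerge pots 8–21 days earlier. Fourteen days on, each pot was graded 0–100 for damage.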

[2] = system: barnyardgrass (Echinochloa crus-galli, ECHCG); experiment: as above; settings: pre-emerge, 14 days after application, rating scale 0-100
Method in brief: (§1)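 Applied at 15–1000 g ai/ha from acetone in 187 l/ha spray volume. Post-emergence applications included 0.25% v/v non-ionic surfactant and reached plants sown 8–21 days before. Pre-emergence applications were incorporated by surface watering. Efficacy or crop damage was rated on a 0–100 scale after 14 days.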

[3] = system: common ragweed (Ambrosia artemisizfolia L., AMBEL); experiment: as above; settings: pre-emerge, 14 days after application, rating scale 0-100
Method in brief: as §1

[4] = system: green foxtail (Setaria viridis, SETVI); experiment: as above; settings: pre-emerge, 14 days after application, rating scale 0-100
Method in brief: as §1

[5] = system: ivyleaf morningglory (Ipomoea hederacea, IPOHE); experiment: as above; settings: pre-emerge, 14 days after application, rating scale 0-100
Method in brief: as §1

[6] = system: johnsongrass (Sorghum halepense, SORHA); experiment: as above; settings: pre-emerge, 14 days after application, rating scale 0-100
Method in brief: as §1

[7] = system: lambsquarters (Chenopodium album, CHEAL); experiment: as above; settings: pre-emerge, 14 days after application, rating scale 0-100
Method in brief: as §1

[8] = system: large crabgrass (Digitaria sanguinalis, DIGSA); experiment: as above; settings: pre-emerge, 14 days after application, rating scale 0-100
Method in brief: as §1

[9] = system: sicklepod (Cassia obtusifolia, CASOB); experiment: as above; settings: pre-emerge, 14 days after application, rating scale 0-100
Method in brief: as §1

[10] = system: velvetleaf (Abutilon theophrasti, ABUTH); experiment: as above; settings: pre-emerge, 14 days after application, rating scale 0-100
Method in brief: as §1

[11] = system: field corn (Zea mays L., var. Dekalb 535, CORN); experiment: Pre-emerge test, crop safety; settings: pre-emerge, 14 days after application, rating scale 0-100
Method in brief: (§2)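 Compounds in acetone were track-sprayed at 15-1000 g ai/ha (187 l/ha) on sandy loam pots: pre-emerge one day after seeding, post-emerge at 2-3 leaf stage with 0.25% v/v non-ionic surfactant. Phytotoxicity was rated 14 days later on a 0 (no damage) to 100 (complete death) scale.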

[12] = system: upland rice (Oryza sp., var. Tebonnet, RICE); experiment: Pre-emerge test, crop safety; settings: pre-emerge, 14 days after application, rating scale 0-100
Method in brief: as §2

[13] = system: barnyardgrass (Echinochloa crus-galli, ECHCG); experiment: Post-emerge test, greenhouse herbicide activity screening; settings: post-emerge, 14 days after application, rating scale 0-100
Method in brief: (§3)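 Sandy loam pots; pre-emerge: sown 1 d pre-spray, surface-watered after, then bottom-watered. Post-emerge: sown 8–21 d before, 2–3 leaf stage, + 0.25% v/v NIS, bottom-watered. Acetone, 187 l/ha track spray, 15–1000 g ai/ha. 0–100 injury score, day 14.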

[14] = system: green foxtail (Setaria viridis, SETVI); experiment: as above; settings: post-emerge, 14 days after application, rating scale 0-100
Method in brief: as §3

[15] = system: ivyleaf morningglory (Ipomoea hederacea, IPOHE); experiment: as above; settings: post-emerge, 14 days after application, rating scale 0-100
Method in brief: as §3

[16] = system: johnsongrass (Sorghum halepense, SORHA); experiment: as above; settings: post-emerge, 14 days after application, rating scale 0-100
Method in brief: as §3

[17] = system: lambsquarters (Chenopodium album, CHEAL); experiment: as above; settings: post-emerge, 14 days after application, rating scale 0-100
Method in brief: as §3

[18] = system: large crabgrass (Digitaria sanguinalis, DIGSA); experiment: as above; settings: post-emerge, 14 days after application, rating scale 0-100
Method in brief: as §3

[19] = system: redroot pigweed (Amaranthus retroflexus, AMARE); experiment: as above; settings: post-emerge, 14 days after application
Method in brief: as §3

[20] = system: sicklepod (Cassia obtusifolia, CASOB); experiment: as above; settings: post-emerge, 14 days after application, rating scale 0-100
Method in brief: as §3

[21] = system: velvetleaf (Abutilon theophrasti, ABUTH); experiment: as above; settings: post-emerge, 14 days after application, rating scale 0-100
Method in brief: as §3

[22] = system: field corn (Zea mays L., var. Dekalb 535, CORN); experiment: Post-emerge test, crop safety; settings: post-emerge, 14 days after application, rating scale 0-100
Method in brief: as §1

[23] = system: upland rice (Oryza sp., var. Tebonnet, RICE); experiment: Post-emerge test, crop safety; settings: post-emerge, 14 days after application, rating scale 0-100
Method in brief: as §1

CCCOC(=O)C(Cl)Cc1c(OCC)c(Cl)cc(F)c1-n1c(=O)cc(C(F)(F)F)n(C)c1=O (stereo not shown) [14-65]
20: phytotoxicity rating SETVI ([4]; 63 g ai/ha) | phytotoxicity rating SORHA ([6]; 63 g ai/ha) | phytotoxicity rating SORHA ([6]; 250 g ai/ha)
80: phytotoxicity rating ECHCG ([2]; 250 g ai/ha) | phytotoxicity rating CASOB ([9]; 250 g ai/ha)
60: phytotoxicity rating CHEAL ([7]; 63 g ai/ha) | Post-emerge Herbicidal Activity SORHA (phytotoxicity rating) ([16]; 250 g ai/ha)
30: Post-emerge Herbicidal Activity SORHA (phytotoxicity rating) ([16]; 63 g ai/ha)
100: phytotoxicity rating AMARE ([1]; 63 g ai/ha) | phytotoxicity rating AMARE ([1]; 250 g ai/ha) | phytotoxicity rating AMBEL ([3]; 63 g ai/ha) | phytotoxicity rating CHEAL ([7]; 250 g ai/ha) | phytotoxicity rating DIGSA ([8]; 250 g ai/ha) | phytotoxicity rating ABUTH ([10]; 250 g ai/ha) | Post-emerge Herbicidal Activity ECHCG (phytotoxicity rating) ([13]; 63 g ai/ha) | Post-emerge Herbicidal Activity ECHCG (phytotoxicity rating) ([13]; 250 g ai/ha) | Post-emerge Herbicidal Activity SETVI (phytotoxicity rating) ([14]; 63 g ai/ha) | Post-emerge Herbicidal Activity SETVI (phytotoxicity rating) ([14]; 250 g ai/ha) | Post-emerge Herbicidal Activity CHEAL (phytotoxicity rating) ([17]; 250 g ai/ha) | Post-emerge Herbicidal Activity DIGSA (phytotoxicity rating) ([18]; 250 g ai/ha) | Post-emerge Herbicidal Activity AMARE (phytotoxicity rating) ([19]; 63 g ai/ha, rating scale 0-100 (0 no damage, 100 complete death)) | Post-emerge Herbicidal Activity AMARE (phytotoxicity rating) ([19]; 250 g ai/ha, rating scale 0-100) | Post-emerge Herbicidal Activity CASOB (phytotoxicity rating) ([20]; 250 g ai/ha) | Post-emerge Herbicidal Activity ABUTH (phytotoxicity rating) ([21]; 63 g ai/ha) | Post-emerge Herbicidal Activity ABUTH (phytotoxicity rating) ([21]; 250 g ai/ha)
0: phytotoxicity rating ECHCG ([2]; 63 g ai/ha) | phytotoxicity rating CORN ([11]; 63 g ai/ha) | phytotoxicity rating CORN ([11]; 250 g ai/ha) | phytotoxicity rating RICE ([12]; 63 g ai/ha) | phytotoxicity rating RICE ([12]; 250 g ai/ha) | Post-emerge Herbicidal Activity CORN (crop damage rating) ([22]; 63 g ai/ha) | Post-emerge Herbicidal Activity RICE (crop damage rating) ([23]; 63 g ai/ha)
90: phytotoxicity rating SETVI ([4]; 250 g ai/ha) | phytotoxicity rating DIGSA ([8]; 63 g ai/ha) | phytotoxicity rating ABUTH ([10]; 63 g ai/ha) | Post-emerge Herbicidal Activity CHEAL (phytotoxicity rating) ([17]; 63 g ai/ha) | Post-emerge Herbicidal Activity CASOB (phytotoxicity rating) ([20]; 63 g ai/ha)
70: phytotoxicity rating AMBEL ([3]; 250 g ai/ha) | phytotoxicity rating IPOHE ([5]; 250 g ai/ha) | Post-emerge Herbicidal Activity IPOHE (phytotoxicity rating) ([15]; 250 g ai/ha)
10: Post-emerge Herbicidal Activity RICE (crop damage rating) ([23]; 250 g ai/ha)
99: Post-emerge Herbicidal Activity DIGSA (phytotoxicity rating) ([18]; 63 g ai/ha)
50: Post-emerge Herbicidal Activity IPOHE (phytotoxicity rating) ([15]; 63 g ai/ha) | Post-emerge Herbicidal Activity CORN (crop damage rating) ([22]; 250 g ai/ha)
40: phytotoxicity rating IPOHE ([5]; 63 g ai/ha) | phytotoxicity rating CASOB ([9]; 63 g ai/ha)
